Assay results as given in patent EP0873137B1, “COMPOSITIONS INCLUDING CALCIUM INFLUX BLOCKERS FOR INHIBITING CELL GROWTH” (The Wellesley Hospital Foundation, priority 1996, dated 1997).

Columns and labels:
MDA-MB-231 cells = assay: Cell death in autocrine stimulated MDA-MB-231 breast cancer cells; assay type: cell-based, human; conditions: 20µM econazole; YVAD-CHO 10 or 100 µM, ionomycin 0.1 nM to 1 µM, oleic acid 10 or 100 µM
Protocol: Bar 1: control; Bar 2: 20µM econazole; Bar 3: 20µM econazole and 10µM YVAD-CHO (ICE inhibitor); Bar 4: 20µM econazole and 100 µM YVAD-CHO; Bar 5: 20µM econazole and 0.1 nM ionomycin (calcium ionophore); Bar 6: 20µM econazole and 10 nM ionomycin; Bar 7: 20µM econazole and 1 µM ionomycin; Bar 8: 20µM econazole and 10 µM oleic acid (PLC activation inhibitor); and Bar 9: 20µM econazole and 100 µM oleic acid.
(§1) Cells. Bone marrow derived mast cells (BMMC) were generated as described previously (Berger et al., 1994). They were cultured in OPTI-MEM (Gibco, Burlington, ON) supplemented with 10% heat-inactivated FBS and 2% WEHI-3 supernatant as a source of IL-3. 32D-kit cells (gift from Dr. Mark Minden, Ontario Cancer Institute) are an IL-3-dependent myelomonocytic cell line expressing c-kit (Hu et al., 1995). 32D-kit cells were grown in RPMI (Gibco) supplemented with 10% heat-inactivated FBS, 2% WEHI-3 supematant, and 1 mg/ml G418 (Gibco). The p815 cell line is a murine mastocytoma cell line. P815 cells were grown in RPMI supplemented with 10% heat-inactivated FBS. Bcl-2 gp+e NIH 3T3 packaging cells were grown in Dulbecco's modified Eagle's medium (DMEM - Gibco) and supplemented with 10% FBS and 2 µg/ml puromycin (Sigma, St. Louis, Mo). All cell cultures also contained 55µM β-mercaptoethanol and antibiotics (both Sigma). SK-BR3, MDA-MB231 and MCF-7 cells were obtained from ATCC. SK-BR3 and MDA-MB231 cells were cultured in RPMI medium supplemented with 10% heat inactivated fetal bovine serum. MCF-7 cells were cultured in DMEM medium supplemented with 10% heat inactivated fetal bovine serum and 10 µg/ml human insulin (Sigma).
The MDA-MB-231 cell line is a highly anaplastic carcinoma of the breast. it too is tumorigenic in nude mice but expresses only low levels of erbB2. However it is FGF^R positive and is stimulated in an autocrine fashion by bFGF (el Yazidi et al., 1995). Experiments were carried out to determine the susceptibility of MDA-MB-231 cells to a Ca^2+ influx blocker and the influence of oleic acid, ionomycin, and YVAD-CHO on induction of cell death by the blocker. The results are summarized together in Figure 9B.

32D-kit cells = assay: Cell death assay (Trypan blue exclusion) in 32D-kit cells; assay type: cell-based
Protocol: Figures 2A and 2B show induction of cell death in 32D-kit or p815 cells with SLF plus Ca^2+ influx blockers. 32D-kit (Figure 2A) or p815 (Figure 2B) cells were incubated with either SLF (solid bars) or IL-3 (striped bars) plus the indicated concentration of Ca^2+ influx blocker. Cell death was determined by Trypan Blue exclusion after 18 hours in culture.
32D-kit cells were incubated for 18 hours with SLF and 5µM econazole and oleic acid (solid bars), or with SLF and 5µM econazole and elaidic acid (hatched bars), or IL-3 and 5 µM econazole and oleic acid (stippled bars). The proportion of dead cells was determined by Trypan Blue exclusion.
(§2) Figures 6A and 6B show the effect of ionomycin on apoptosis induced by SLF and Ca^2+ influx blacker. In Figure 6A, 32D-kit cells were incubated for 18 hours with 5µM econazole and the indicated amounts of ionomycin in the presence of either SLF (circles) or IL-3 (squares). In Figure 6B, 32D-kit-Bcl-2 cells were incubated for 18 hours with 5µM econazole and the indicated amounts of ionomycin in the presence of either SLF (circles) or IL-3 (squares). The proportion of dead cells was determined by Trypan Blue exclusion.
(§3) In additional cultures, IL-3 alone or no factor was added and cell viability was similarly tested. The effect on cell viability of adding 25 or 250 µM YVAD-CHO was also evaluated in separate cultures in which no additional factors were added.
32D-kit cells were incubated with either SLF in the absence of YVAD-CHO (circles), or with SLF in the presence of 25 µM YVAD-CHO. (triangles), or IL-3 (squares) with the indicated amounts of econazole. The proportion of dead cells was evaluated by Trypan Blue exclusion after 18 hours in culture
as §1
(§4) Cell death assays. 2.5 X 10^4 BMMCs, 32D-kit or P815 cells were placed in 96-well flat bottom plates in a volume of 0.1 ml RPMI containing 0.5% FBS. Cells were supplemented with either SLF, Substance P or IL3 plus Ca^2+ channel blocker. In the case of adding IgE, cells were incubated with 10 µg/ml SPE-7 for 45 minutes at 4°C followed by 3 washes with RPMI, 0.5% FBS before plating in 96 well plates and adding 100 ng/ml DNP-HSA. The proportion of dead cells was determined after 18 or 24 hours in culture by counting cells that could or could not exclude Trypan blue.

[1] = tested on: Bone marrow derived mast cells (BMMC); assay: Cell death assay (Trypan blue exclusion) in BMMC; assay type: cell-based; conditions: 24 hours
Protocol: Cytotoxicity assays were performed as described in Materials and Methods. In Figures 1A to 1C, BMMCs were incubated with either SLF (500ng/ml in all cases) (circles) or IL-3 (25% WEHI-3 conditioned medium in all cases) (squares) with the indicated amounts of ketotifen (Figure 1A), econazole (Figure 1B) or Ni^2+ (Figure 1C). In Figure 1D, BMMCs were incubated with IL-3, and the indicated amounts of SLF. Plotted circles also included 2.5mM Ni^2+ and plotted squares included no Ni^2+. In Figure 1E, BMMCs were coated with IgE anti-DNP monoclonal SPE-7, then incubated with IL-3 plus the indicated amounts of DNP-HSA (Ag), with 5µM econazole (circles) or without econazole (squares). In Figure 1F, BMMCs were incubated with IL-3 plus the indicated amounts of Substance P, with 5µM econazole (circles) or without econazole (squares). In all cases, the proportion of dead cells was determined after 24 hours in culture by counting cells that could or could not exclude Trypan blue. Error bars represent the standard error determined from triplicate measurements.
as §1, §4

32D-kit-Bcl-2 cells = assay: Cell death assay (Trypan blue exclusion) in Bcl-2 over-expressing 32D-kit cells; assay type: cell-based; conditions: 5µM econazole, 18 hours, Figure 6B
Protocol: as §2, §3
Generation of Bcl-2 over-expressing 32D-kit cells. gp + e bcl-2 retroviral producer cells were a gift from Dr. Y. Ben-David (Toronto) and contain an LXSN-based retroviral vector expressing genes for both puromycin resistance and murine bcl-2. For infection, a confluent layer of gp + e packaging cells were co-cultured with 32D-kit cells for 24 hours. Non-adherent 32D-kit cells were then removed, cultured for 48 hours and then selected for bcl-2 over-expressing cells in the presence of 2µg/ml puromycin.
as §4

[2] = tested on: all cells capable of forming colonies in agar in response to IL-3; assay: 32D-kit leukemia in mice, SLF intravenously: all IL-3-dependent spleen colonies in agar; assay type: in vivo; conditions: ketotifen 100mg/kg p.o. twice, SLF 15µg intravenously; leukemic as well as normal cells
Protocol: Figure 11B is similar to Figure 11A, but in this case spleen cells were assayed for the presence of all cells capable of forming colonies in agar in response to IL-3, to include leukemic as well as normal cells.
(§5) Mice. For the in vivo 32D-kit experiments, mice were male C3H/ he mice 6 to 8 weeks old and obtained from Charles River Laboratories, Boston, Massachusetts. Mice were inoculated intravenously with 1 x 10^7 leukemic cells. Between 3 and 5 weeks following the inoculation, mice were given 100 mg/kg ketotifen (Sigma) in a volume of 0.4 ml water by oral gavage, Following the first ketotifen treatment, mice were injected intravenously or subcutaneously with 15 µg SLF in PBS. A second ketotifen treatment followed administration of SLF.
(§6) In order to determine the efficacy of the combination of a Ca^2+ influx blocker with an activating signal in vivo, mice inoculated with factor-dependent and G418-resistant 32D-kit leukemia cells were treated with a combination of ketotifen and SLF. […] The number of G418-resistant colonies detected in animals that were injected with SLF only tended to be higher than those not receiving the factor, varying between 65 and 31,000 with an arithmetic average of 7,399, and a geometric mean of 1,545 colonies/spleen. […]

32D-kit leukemia cells = assay: 32D-kit leukemia in mice, SLF intravenously: G418-resistant spleen colonies in agar; assay type: in vivo
Protocol: Mice were inoculated intravenously with 1 X 10^7 G418-resistant 32D-kit cells. Between 3 and 5 weeks following the inoculation (Experiments 1 & 3; 5 weeks, experiment 2; 3 weeks), mice were given 100mg/kg ketotifen by oral gavage. Four hours following the ketotifen treatment, mice were injected with 15µg SLF intravenously. Two hours later the mice were given a further 100mg/kg ketotifen p.o. The following day, spleens were removed and assayed for the presence of leukemic cells by plating cells in 0.3% agar in growth medium containing 20% WEHI-3 conditioned medium and 1 mg/ml G418 to limit detection to the G418-resistant leukemic cells. Seven days later, colonies were enumerated.
as §5
as §6, with “SLF. In one set of experiments, spleen cells were removed and assayed for the presence of leukemic cells by plating cells in agar in growth medium containing 20% WEHI-3 conditioned medium and 1mg/ml G418 to limit detection to the G418-resistant leukemic cells.” for “SLF.”

[3] = co-incubated with SLF (500ng/ml), Figures 1A-C
[4] = stimulated with IgE plus antigen (DNP-HSA), with IL-3, 5µM econazole in Figure 1E
[5] = SLF and 5µM econazole, 18 hours
[6] = ketotifen 100mg/kg p.o. twice, SLF 15µg intravenously, spleens next day

Compound: YVAD-CHO
- protection from death induced by the Ca^2+ influx blocker (MDA-MB-231 cells): can protect
- resistance to apoptosis induced by SLF plus econazole (32D-kit cells; 25 µM YVAD-CHO, 18 hours, Figure 8): provides resistance
- protection from apoptosis induced by factor withdrawal (32D-kit cells; 25 or 250 µM YVAD-CHO, Figure 7B): fails to protect
- protection from apoptosis induced by the topoisomerase inhibitor etoposide (32D-kit cells; not shown): protects

Compound: [Ni+2] [Ni^2+]
- cell death [1, 3]: converted to a death signal
- cell death [1, 4]: combine with IgE receptor cross-linking to induce cell death

Compound: C[C@H](CCC(=O)O)C[C@H](C)C[C@H](C)C(=O)/C=C(\O)[C@H](C)C[C@H](C)C/C=C/[C@@H](C)[C@@H](O)[C@@H](C)[C@@H](O)C[C@@H]1CC[C@@](C)([C@H]2CC[C@@](C)([C@@H](C)O)O2)O1 [ionomycin]
- protection from death induced by the Ca^2+ influx blocker (MDA-MB-231 cells): can protect
- cell death at higher levels of ionomycin (32D-kit-Bcl-2 cells): did not demonstrate significant cell death
- protection from apoptosis by SLF plus blocker (32D-kit-Bcl-2 cells; low levels of ionomycin): similarly protected from apoptosis
- cell death at higher concentrations of ionomycin (32D-kit cells; [5]): restoration of cell death
- rescue/protection from cell death induced by SLF and Ca^2+ influx blocker (32D-kit cells; [5]): protects
- concentration of maximal protection (32D-kit cells; SLF and 5µM econazole, 18 hours, Figure 6A): 10 nM

Compound: CCCCCCCC/C=C\CCCCCCCC(=O)O [oleic acid, cis-9-octadecenoic acid]
- protection from death induced by the Ca^2+ influx blocker (MDA-MB-231 cells): can protect
- range of effectiveness (rescue from cell death) (32D-kit cells; [5]): 1 to 100 µM
- rescue/protection from cell death induced by SLF and Ca^2+ influx blocker (32D-kit cells; [5]): rescued from cell death

Compound: CCCCCCCC/C=C/CCCCCCCC(=O)O [elaidic acid, trans-9-octadecenoic acid]
- rescue/protection from cell death induced by SLF and Ca^2+ influx blocker (32D-kit cells; [5]): not

Compound: COc1ccc(CCN(C)CCCC(C#N)(c2ccc(OC)c(OC)c2)C(C)C)cc1OC (stereo not drawn) [verapamil]
- inducing cell death (32D-kit cells; combined with SLF, not shown, cell type not stated): ineffective in inducing cell death

Compound: CN1CCC(=C2c3ccccc3CC(=O)c3sccc32)CC1 [ketotifen]
- cell death [1, 3]: converted to a death signal
- cell death [1, 4]: combine with IgE receptor cross-linking to induce cell death
- IL-3-dependent colonies, arithmetic average [2]: 7,715 colonies/spleen
- IL-3-dependent colonies, geometric mean [2]: 2,320 colonies/spleen
- activity on the leukemic cells in vivo (32D-kit leukemia cells; SLF intravenously): little activity
- G418-resistant colonies, arithmetic average (32D-kit leukemia cells; [6]): 5,502 colonies/spleen
- G418-resistant colonies, geometric mean (32D-kit leukemia cells; [6]): 849 colonies/spleen
